Assay results taken from paper PMC6278399, “Synthesis and Anticancer Activity Evaluation of Hydrolyzed Derivatives of Panaxnotoginseng Saponins” (Molecules, 2018).

Tests used:
[1] = system: human colon cancer cells (HT-29); experiment: MTT cytotoxicity assay, HT-29; type: cell-based; conditions: Homo sapiens; HT-29, MTT, 48 h
Description: (§1) In the study, five cancer cell lines (human colon cancer cells (HT-29), gastric cancer cells (BGC-823), cervical cancer cells (Hela), human breast cancer cells (MCF-7), and human lung cancer cells A549)), and two normal cell lines (human gastric epithelial cells (GES-1) and human ovarian epithelial cells (IOSE144)) were used for the evaluation of biological activity. IOSE144 cells were donated by Professor Piao Huri of Yanbian University, all other cells were purchased from the American Type Culture Collection (ATCC, Manassas, VA, USA). Cells were cultured in Dulbecco’s Modified Eagle’s Medium (DMEM), supplemented with 10% heat-inactivated fetal bovine serum (FBS), 1% 100 μg/mL penicillin and 100 μg/mL streptomycin in a humidified atmosphere containing 5% CO2 at 37 °C. Cell viability was measured using the MTT assay. Cells were seeded in 96 well microtiter plates in a volume of 100 μL medium. All compounds tested were dissolved and further diluted in DMSO. After overnight incubation, cells were treated with different test concentrations or carrier solvents alone in a final volume of 100 μL with five replicates each. […] Cells were treated with compound (80, 40, 20, 10, 5 μM) for 48 h. Then, 10 μL of MTT (5 mg/mL) was added to each well and the cells were incubated at 37 °C in the dark for 4 h. Supernatants were removed and formazan crystals were dissolved in DMSO (100 μL/well). The solution was agitated for 10 min, and the absorbance was measured at 490 nm using microplate reader (imark, BIO-RAD, Hercules, CA, USA) to calculate the 50% inhibitory concentration (IC50). Ginsenoside-Rg3, panaxadiol sapogenin (PD), AD-2 (25-OH-PPD) and AD-1 (25-OCH3-PPD) were used as standard reference compounds.

[2] = system: gastric cancer cells (BGC-823); experiment: MTT cytotoxicity assay, BGC-823; type: cell-based, human; conditions: Homo sapiens; BGC-823, MTT, 48 h
Description: as §1

[3] = MTT cytotoxicity assay, IOSE144 normal cells; type: cell-based, human; conditions: human
Description: as §1

[4] = system: human breast cancer cells (MCF-7); experiment: MTT cytotoxicity assay, MCF-7; type: cell-based; conditions: Homo sapiens, MCF7; MCF-7, MTT, 48 h
Description: as §1

[5] = system: human lung cancer cells A549; experiment: MTT cytotoxicity assay, A549; type: cell-based; conditions: Homo sapiens, 48 h
Description: as §1

[6] = system: cervical cancer cells (Hela); experiment: MTT cytotoxicity assay, Hela; type: cell-based, human; conditions: Homo sapiens, 48 h
Description: as §1

[7] = MTT cytotoxicity assay, GES-1 normal cells; type: cell-based, human; conditions: human
Description: as §1

[8] = IOSE144 ovarian epithelial cells (normal cell line), IOSE144 normal cells, MTT, 48 h, read-out: IC50
[9] = GES-1 gastric epithelial cells (normal cell line), GES-1 normal cells, MTT, 48 h, read-out: IC50

| SMILES | IC50 [1] | IC50 [2] | IC50 at 48 h [3] | IC50 [4] | IC50 [5] | melting point | IC50 [6] | IC50 at 48 h [7] | IC50 at 48 h [3, 8] | IC50 at 48 h [7, 9] |
| --- | --- | --- | --- | --- | --- | --- | --- | --- | --- | --- |
| COC(C)(C)CCCC(C)(O)C1CCC2(C)C1C(OC(=O)c1ccccc1O)CC1C3(C)CCC(OC(=O)c4ccccc4O)C(C)(C)C3CCC12C [Compound 2a, 20(R)-25-Methoxydammarane-20-hydroxy-3β,12β-di-yl-2′-hydroxybenzoate] | 32.58 ± 0.23 µM | 40.9 ± 0.45 µM | > 100 µM | 25.7 ± 0.43 µM | 26.45 ± 0.14 µM | 200 to 202 °C | 16.5 ± 0.23 µM | > 100 µM | – | – |
| CC(=O)OC1CCC2(C)C(CCC3(C)C2CC(OC(=O)c2ccccc2O)C2C(C4(C)CCCC(C)(C)O4)CCC23C)C1(C)C [Compound 4b, 20(R)-Pananxadiol-3β-o-acetyl-12β-yl-2′-hydroxybenzoate] | 36.12 ± 0.28 µM | 50.26 ± 0.39 µM | > 100 µM | 39.4 ± 0.68 µM | 25.4 ± 0.77 µM | 238 to 240 °C | 48.75 ± 0.37 µM | > 100 µM | – | – |
| CC1(C)CCC[C@](C)(C2CC[C@]3(C)C2[C@H](O)CC2[C@@]4(C)CC[C@H](OC(=O)c5ccccc5O)C(C)(C)C4CC[C@]23C)O1 (stereo partly drawn) [Compound 11a, 20(R)-Pananxadiol-12β-hydroxy-3β-yl-2′-hydroxybenzoate] | 26.5 ± 0.56 µM | 41.9 ± 0.43 µM | > 100 µM | 11.5 ± 1.47 µM | 23.8 ± 1.36 µM | 222 to 224 °C | > 100 µM | > 100 µM | – | – |
| CC(=O)OC1CC2C3(C)CCC(OC(=O)c4ccccc4O)C(C)(C)C3CCC2(C)C2(C)CCC(C(C)(O)CCCC(C)(C)O)C12 [Compound 6b, 20(R)-Dammarane-20,25-diol-12β-o-acetyl-3β-yl-2′-hydroxybenzoate] | 15.2 ± 0.41 µM | 40.6 ± 1.05 µM | > 100 µM | > 100 µM | > 100 µM | 278 to 280 °C | 48.3 ± 2.16 µM | > 100 µM | – | – |
| COC(C)(C)CCCC(C)(O)C1CCC2(C)C1C(O)CC1C3(C)CCC(OC(=O)c4ccccc4O)C(C)(C)C3CCC12C [Compound 4a, 20(R)-25-Methoxydammarane-12β,20-diol-3β-yl-2′-hydroxybenzoate] | 50.6 ± 1.03 µM | 13.2 ± 0.18 µM | > 100 µM | 11.1 ± 0.35 µM | 35.6 ± 0.56 µM | 246 to 248 °C | 19.26 ± 0.14 µM | > 100 µM | – | – |
| CC(C)(CCCC(C)(O)C1CCC2(C)C1C(O)CC1C3(C)CCC(O)C(C)(C)C3CCC12C)OC(=O)c1ccccc1O [Compound 8a, 20(R)-Dammarane-3β,12β,20-triol-25-yl-2′-hydroxybenzoate] | > 100 µM | > 100 µM | > 100 µM | 50.7 ± 1.34 µM | 47.1 ± 0.59 µM | 223 to 225 °C | > 100 µM | > 100 µM | – | – |
| CC(C)(CCCC(C)(O)C1CCC2(C)C1C(O)CC1C3(C)CCC(OC(=O)c4ccccc4O)C(C)(C)C3CCC12C)OC(=O)c1ccccc1O [Compound 6a, 20(R)-Dammarane-12β, 20-diol-3β, 25-di-yl-2′-hydroxybenzoate] | > 100 µM | > 100 µM | > 100 µM | > 100 µM | 19.4 ± 0.59 µM | 219 to 221 °C | 20.4 ± 0.36 µM | > 100 µM | – | – |
| CC1(C)CCC[C@](C)(C2CC[C@]3(C)C2[C@H](OC(=O)c2ccccc2O)CC2[C@@]4(C)CC[C@H](OC(=O)c5ccccc5O)C(C)(C)C4CC[C@]23C)O1 (stereo partly drawn) [Compound 10a, 20(R)-Pananxadiol-3β,12β-di-yl-2′-hydroxybenzoate] | 30.25 ± 0.02 µM | > 100 µM | > 100 µM | 41.4 ± 0.48 µM | 29.5 ± 0.61 µM | 232 to 234 °C | > 100 µM | > 100 µM | – | – |
| CC(=O)Oc1ccccc1C(=O)OC1CC2C3(C)CCC(O)C(C)(C)C3CCC2(C)C2(C)CCC(C3(C)CCCC(C)(C)O3)C12 [Compound 5b, 20(R)-Pananxadiol-3β-hydroxy-12β-yl-2′-acetylbenzoate] | 20.1 ± 0.74 µM | 26.24 ± 0.02 µM | > 100 µM | 24.36 ± 0.15 µM | 14.1 ± 0.52 µM | 226 to 228 °C | 18.65 ± 0.13 µM | > 100 µM | – | – |
| CC(=O)Oc1ccccc1C(=O)O [Acetyl-salicylic acid, reference compound] | 70.26 ± 0.38 µM | 87.67 ± 0.78 µM | – | 57.1 ± 1.7 µM | 90.5 ± 2.13 µM | – | > 100 µM | – | > 100 µM | > 100 µM |
| CC(C)(O)CCCC(C)(O)C1CCC2(C)C1C(OC(=O)c1ccccc1O)CC1C3(C)CCC(O)C(C)(C)C3CCC12C [Compound 5a, 20(R)-Dammarane-3β,20,25-triol-12β-yl-2′-hydroxybenzoate] | 18.4 ± 0.47 µM | 60.5 ± 1.11 µM | > 100 µM | 18.5 ± 0.23 µM | 22.5 ± 0.46 µM | 258 to 260 °C | 21.6 ± 1.08 µM | > 100 µM | – | – |
| CC(C)(O)CCCC(C)(O)C1CCC2(C)C1C(O)CC1C3(C)CCC(OC(=O)c4ccccc4O)C(C)(C)C3CCC12C [Compound 9a, 20(R)-Dammarane-12β,20,25-triol-3β-yl-2′-hydroxybenzoate] | 11.5 ± 0.23 µM | 26.52 ± 0.26 µM | > 100 µM | 50.44 ± 0.11 µM | 35.9 ± 0.41 µM | 295 to 297 °C | 37.3 ± 0.39 µM | > 100 µM | – | – |
| CC(=O)Oc1ccccc1C(=O)OC1CCC2(C)C(CCC3(C)C2CC(OC(C)=O)C2C(C(C)(O)CCCC(C)(C)O)CCC23C)C1(C)C [Compound 7b, 20(R)-Dammarane-20,25-diol-12β-o-acetyl-3β-yl-2′-acetylbenzoate] | 28.6 ± 0.65 µM | 18.4 ± 0.35 µM | > 100 µM | 22.6 ± 1.02 µM | 28.4 ± 0.95 µM | 268 to 270 °C | 19.53 ± 0.19 µM | > 100 µM | – | – |
| O=C(O)c1ccccc1O [Salicylic acid, reference compound] | 83.2 ± 1.65 µM | > 100 µM | – | > 100 µM | > 100 µM | – | > 100 µM | – | > 100 µM | > 100 µM |
| CC1(C)CCC[C@](C)([C@H]2CC[C@]3(C)[C@@H]2[C@H](O)C[C@@H]2[C@@]4(C)CC[C@H](O)C(C)(C)[C@@H]4CC[C@]23C)O1 [PD, panaxadiol, reference compound] | 73.4 ± 1.84 µM | 80.13 ± 0.36 µM | – | 62 ± 1.63 µM | 43.1 ± 1.05 µM | – | 72.15 ± 0.52 µM | – | > 100 µM | > 100 µM |
